From PubChem BioAssay AID651642 (Sanford-Burnham Center for Chemical Genomics, 2012)

Legend:
HL-1 = test: protection of cardiomyocytes from stress damage, SAR follow-up, cell-based, panel, H9c2 and HL-1, H2O2, 2-deoxyglucose, ATP luminescence (AID 651642)
H9c2 = test: as above
[1] = H9c2/HL-1 cardiomyocyte 2-deoxyglucose damage, run 1, with 2-deoxyglucose
[2] = H9c2/HL-1 cardiomyocyte 2-deoxyglucose damage, run 2, with 2-deoxyglucose
[3] = H9c2/HL-1 cardiomyocyte 2-deoxyglucose damage, run 3, with 2-deoxyglucose
[4] = H9c2/HL-1 cardiomyocyte 2-deoxyglucose damage, run 4, with 2-deoxyglucose
[5] = H9c2/HL-1 cardiomyocyte H2O2 oxidative damage, run 1, with H2O2
[6] = H9c2/HL-1 cardiomyocyte H2O2 oxidative damage, run 2, with H2O2
[7] = H9c2/HL-1 cardiomyocyte H2O2 oxidative damage, run 3, with H2O2
[8] = H9c2/HL-1 cardiomyocyte H2O2 oxidative damage, run 4, with H2O2
[9] = H9c2/HL-1 cardiomyocyte 2-deoxyglucose damage, mean of runs, with 2-deoxyglucose, mean IC50 across panel
[10] = H9c2/HL-1 cardiomyocyte H2O2 oxidative damage, mean of runs, with H2O2, mean IC50 across panel

Compound | IC50 (HL-1; [1]) [µM] | IC50 (HL-1; [2]) [µM] | IC50 (HL-1; [3]) [µM] | IC50 (HL-1; [4]) [µM] | IC50 (HL-1; [5]) [µM] | IC50 (HL-1; [6]) [µM] | IC50 (HL-1; [7]) [µM] | IC50 (HL-1; [8]) [µM] | IC50 (H9c2; [9]) [µM] | IC50 (H9c2; [1]) [µM] | IC50 (H9c2; [2]) [µM] | IC50 (H9c2; [3]) [µM] | IC50 (H9c2; [4]) [µM] | IC50 (H9c2; [5]) [µM] | IC50 (H9c2; [6]) [µM] | IC50 (H9c2; [7]) [µM] | IC50 (H9c2; [8]) [µM] | IC50 (HL-1; [9]) [µM] | IC50 (HL-1; [10]) [µM] | IC50 (H9c2; [10]) [µM]
COc1ccc2c(c1OC)C(=O)N1c3ccccc3C(=O)N(Cc3ccc(C)cc3)C21 (centres undefined) | 11.4 | 23.3 | > 79 | > 79 | > 79 | > 79 | > 79 | > 79 | > 79 | > 79 | > 79 | > 79 | > 79 | > 79 | 6.9 | > 79 | > 79 | – | – | –
COc1cc(-c2cc(C(=O)Nc3cccc(C(=O)NC4CC4)c3)c3ccccc3n2)cc(OC)c1OC | 3.71 | 4.41 | 7.05 | 10.4 | 4.24 | 4.83 | 7.07 | 10.6 | 19.6 | 19.4 | 21 | 18.4 | 19.8 | 2 | 2.73 | 2.22 | 3.11 | 6.39 | 6.68 | 2.51
COc1ccc2c(c1OC)C(=O)N1c3ccccc3C(=O)N(Cc3ccccc3Cl)C21 (centres undefined) | 1.05 | 1.56 | 2.66 | 3.94 | > 79 | > 79 | > 79 | > 79 | 15.8 | 17 | 20.1 | 12 | 14.2 | 0.558 | 0.745 | > 79 | > 79 | 2.3 | > 79 | –
CCOC(=O)c1cccc(NC(=O)c2cc(-c3cc(OC)c(OC)c(OC)c3)nc3ccc(C)cc23)c1 | 2.03 | 2.12 | > 79 | > 79 | > 79 | 2.63 | 1.79 | 2.94 | > 79 | > 79 | > 79 | > 79 | > 79 | 2.98 | 3.24 | 2.59 | 3.01 | – | – | 2.96
COc1cc(-c2cc(C(=O)Nc3cccc(C(=O)N4CCOCC4)c3)c3ccccc3n2)cc(OC)c1OC | 8.16 | 11.2 | 27.8 | 28.6 | 12.9 | 16.7 | 10.7 | 18.4 | – | > 79 | 60.5 | > 79 | > 79 | 6.19 | 7.7 | 4.73 | 5.07 | 19 | 14.7 | 5.92
COc1cc(-c2cc(C(=O)Nc3cccc(C(C)=O)c3)c3cccc(Cl)c3n2)cc(OC)c1OC | > 79 | > 79 | > 79 | > 79 | > 79 | > 79 | 2 | 2.5 | > 79 | > 79 | > 79 | > 79 | > 79 | > 79 | > 79 | > 79 | > 79 | > 79 | – | > 79
COc1cc(-c2cc(C(=O)NCC(=O)Nc3ccc(C(C)=O)cc3)c3cc(C)ccc3n2)cc(OC)c1OC | 2.65 | 2.65 | 5.75 | 5.85 | 3.02 | 3.88 | 3.17 | 5.63 | 5.83 | 6.75 | 8.1 | 3.5 | 4.96 | 2.04 | 2.05 | 1.09 | 1.49 | 4.22 | 3.93 | 1.67
CCOC(=O)c1cccc(NC(=O)c2cc(-c3cc(OC)c(OC)c(OC)c3)nc3ccc(Cl)cc23)c1 | > 79 | > 79 | > 79 | > 79 | > 79 | > 79 | 1.79 | 4.09 | > 79 | > 79 | > 79 | > 79 | > 79 | 3.38 | 21.1 | > 79 | > 79 | > 79 | – | –
COC(=O)CNC(=O)c1cccc(NC(=O)c2cc(-c3cc(OC)c(OC)c(OC)c3)nc3ccccc23)c1 | 1.26 | 1.4 | 2.32 | 2.86 | 2.55 | 3.43 | 4.67 | 6.3 | 7.56 | 8.88 | 9.26 | 5.76 | 6.35 | > 79 | 1.7 | > 79 | > 79 | 1.96 | 4.24 | –
COc1cc(-c2cc(C(=O)Nc3cccc(C(C)=O)c3)c3cc(F)ccc3n2)cc(OC)c1OC | > 79 | > 79 | > 79 | > 79 | 2.49 | 3.72 | 3.31 | 5.2 | > 79 | > 79 | > 79 | > 79 | > 79 | 5.38 | 7.18 | 4.58 | 10.5 | > 79 | 3.68 | 6.9
COc1cc(-c2cc(C(=O)NCC(=O)Nc3cccc(C(C)=O)c3)c3cc(Br)ccc3n2)cc(OC)c1OC | 2.44 | 4.64 | 3.4 | 4.85 | 3.56 | 3.69 | 2.7 | 3.41 | 6.44 | 8.22 | 8.41 | 4.43 | 4.71 | 1.48 | 1.49 | 1.02 | 1.06 | 3.83 | 3.34 | 1.26
COc1ccc2c(c1OC)C(=O)N1c3ccccc3C(=O)N(Cc3cccc(Br)c3)C21 (centres undefined) | 5.07 | 5.69 | 7.9 | 11.3 | > 79 | > 79 | > 79 | > 79 | > 79 | > 79 | > 79 | > 79 | > 79 | 2.22 | 3.79 | > 79 | > 79 | 7.49 | > 79 | –
COc1cc(-c2cc(C(=O)Nc3cccc(C(=O)Nc4ccccc4)c3)c3ccccc3n2)cc(OC)c1OC | 0.708 | 0.802 | 1.43 | 1.8 | > 79 | 1.54 | 1.68 | 2.15 | 4.71 | 5.69 | 5.71 | 3.53 | 3.93 | 1.55 | 1.96 | 0.724 | 0.895 | 1.19 | – | 1.28
COc1ccc2c(c1OC)C(=O)N1c3ccccc3C(=O)N(Cc3ccncc3)C21 (centres undefined) | > 79 | > 79 | > 79 | > 79 | > 79 | > 79 | > 79 | > 79 | > 79 | > 79 | > 79 | > 79 | > 79 | > 79 | 55.3 | > 79 | > 79 | > 79 | – | –
COc1cc(-c2cc(C(=O)NCC(=O)Nc3cccc(C(C)=O)c3)c3cc(F)ccc3n2)cc(OC)c1OC | 3.22 | 3.87 | 8.99 | 9.39 | 5.91 | 5.98 | 5.45 | 8.51 | 6.15 | 7.04 | 8.51 | 4.17 | 4.87 | 1.53 | 1.98 | 0.789 | 0.865 | 6.37 | 6.46 | 1.29
COc1ccc2c(c1OC)C(=O)N1c3ccccc3C(=O)N(Cc3ccccc3C)C21 (centres undefined) | 1.65 | 1.91 | 3.79 | 4.71 | > 79 | > 79 | > 79 | > 79 | 16.3 | 17 | 18.1 | 13.8 | 16.2 | 1.32 | 2.6 | > 79 | > 79 | 3.01 | > 79 | –
COc1ccc2nc(-c3cc(OC)c(OC)c(OC)c3)cc(C(=O)NCC(=O)Nc3ccc(C(C)=O)cc3)c2c1 | 2.44 | 3 | 4.63 | 7.24 | 6.12 | 7.42 | 4.42 | 5.28 | 5.3 | 6.66 | 7.3 | 3.59 | 3.65 | 1.96 | 1.99 | 0.928 | 1.23 | 4.33 | 5.81 | 1.52
